# From PMC10746112, “Synthesis and Pro-Apoptotic Effects of Nitrovinylanthracenes and Related Compounds in Chronic Lymphocytic Leukaemia (CLL) and Burkitt’s Lymphoma (BL)” (Molecules, 2023)
# Like-named read-outs stand apart in the source and are kept apart here.
# Tests used:
# [1] = test system: MUTU-I Burkitt’s lymphoma cell line; assay: alamarBlue cell viability assay; conditions: MUTU-I, 24 h; for viability at 1 µM: read-out: % Viable Cells Remaining MUTU-1, 1 µM, 24 h; for viability at 10 µM: read-out: % Viable Cells Remaining MUTU-1, 10 µM, 24 h
# [2] = test system: HeLa cervical cancer cells; assay: alamarBlue cell viability assay; conditions: Homo sapiens, 24 h
# MUTU-1 cells = test system: MUTU-1 cells; parameters: method as in earlier work; conditions: nitrostyrenes and taxol, MTT assay, reported data; cited from earlier work
# [3] = test system: MCF-7 human breast cancer cells; assay: alamarBlue cell viability assay; conditions: for IC50: MCF7, read-out: MCF-7 IC50
# [4] = test system: DG-75 Burkitt’s lymphoma cell line; assay: alamarBlue cell viability assay; conditions: Homo sapiens, DG-75, 48 h; for viability at 1 µM: read-out: % Viable Cells Remaining DG-75, 1 µM, 48 h; for viability at 10 µM: read-out: % Viable Cells Remaining DG-75, 10 µM, 48 h
# Ramos BL cell line = assay: alamarBlue cell viability assay; type: cell-based; conditions: Homo sapiens, 24 h
# Method: (§1) Cells were seeded at a density of 2.5 × 10^4 cells/well (MCF-7, MDA-MB-231 cells), 1 × 10^4 cells/well (HL-60 cells), 1–5 × 10^4 cells per well (BL MUTU-I, DG-75 cells) and 2 × 10^5 cells/well [HG-3, PGA-1 (CLL cells)], Ramos, BJAB (BL cells) (200 μL per well), in 96-well plates. Cells were treated with the desired drug concentration for the appropriate time for each cell type, and the samples were incubated as required. alamarBlue (20 μL) was then added to each well and the samples further incubated in the dark at 37 °C for 4 h. Wells containing only reagent and cell culture medium in the absence of cells were used as blank controls. Ethanol was used as a vehicle, and cells were treated with 1% ethanol (v/v) in all experiments. The 96-well plates were analysed on a fluorescence plate reader (SpectraMax Gemini, Molecular Devices) (emission and excitement wavelengths of 590 nm and 544 nm, respectively), and the fluorescence was recorded. The decrease in cell viability was then calculated with reference to the vehicle samples (100% viability). EMEM medium with the addition of alamarBlue was used as a blank. Vehicle-treated cells were considered to be 100% viable, and the viabilities of each compound was calculated accordingly. […] All biochemical assays were performed in triplicate on at least three independent occasions, and the mean values were determined.
# Bjab BL cell line = assay: alamarBlue cell viability assay; type: cell-based; conditions: Homo sapiens, 24 h
# Method: as §1
# [5] = test system: DG-75 Burkitt’s lymphoma cell line; conditions: cited from earlier work
# [6] = test system: HL-60 promyelocytic leukaemia cells; assay: alamarBlue cell viability assay; conditions: Homo sapiens, HL-60, 24 h
# DG-75 cells = test system: DG-75 cells; parameters: method as in earlier work; conditions: nitrostyrenes and taxol, MTT assay, reported data; cited from earlier work
# [7] = test system: DG-75 Burkitt’s lymphoma cell line; conditions: human, 48 h, 1 µM
# [8] = test system: MUTU-I Burkitt’s lymphoma cell line; conditions: read-out: IC50 MUTU-I; previous work; cited from earlier work
# MUTU-I BL cells = assay: Annexin V/PI apoptotic assay (FACS); type: cell-based; conditions: 24 h
# Method: (§2) The chemotherapeutic drug taxol was used as a positive control. The pro-apoptotic effects of the selected nitrostyrene compounds 11g, 11h, 11i, 11j, 11k and 11l (10 μM) were determined using FITC (fluorescein isothiocyanate), Annexin V/PI (propidium iodide) staining and FACS (fluorescence-activated cell sorting) analysis to characterise the mode of cellular death induced by the synthesised compounds. Four populations were produced in this assay: Annexin-V- and PI-negative (Q4, healthy cells), Annexin-V-positive and PI-negative (Q3, early apoptosis), Annexin-V- and PI-positive (Q2, late apoptosis) and Annexin-V-negative and PI-positive (Q1, necrosis), which were easily identified and quantified. Apoptosis was assessed as % total apoptosis by a combination of early and late apoptosis (Q3 and Q2, respectively). […] The identification of compounds that can induce apoptosis in cancer cells is required in the development of potential lead structures for anticancer drugs.
# (§3) The BL cells DG-75 and MUTU-I (750,000) were treated at 37 °C with either vehicle (0.1% (v/v) EtOH), […] taxol (10 μM) and incubated for 24 h (MUTU-1) or 48 h (DG-75). The CLL cells PGA1 and HG3 (1 × 10^6 cells/mL) were treated at 37 °C with either vehicle (1% (v/v) DMSO) or the nitrostyrene compounds 19a (10 μM, 5 μM and 1 μM) and 19g, 19i, 19l and 19m (10 μM and 1 μM) for 48 h. The cells were then harvested by centrifugation at 400× g in a temperature-controlled Sorvall centrifuge and rinsed with 0.5 mL of Ca^2+ Annexin-V-binding buffer (0.1 M HEPES, pH 7.4; 0.14 M NaCl; 25 mM CaCl2). The samples were resuspended in 50 µL FITC Annexin V (diluted 1:33 in Ca^2+ Annexin V-binding buffer), incubated on ice for 10 min (protected from light), washed with Annexin-V-binding buffer and re-suspended in 500 µL of propidium iodide (PI) solution (0.5 µg/mL). The samples were analysed within 1 h using a BD Accuri C6 flow cytometer counting 10,000 cells and analysed using the FlowJo software (FlowJo LLC, Ashland, OR, USA) package.
# DG-75 BL cells = assay: Annexin V/PI apoptotic assay (FACS); type: cell-based; conditions: 48 h
# Method: as §2, §3
# PGA-1 CLL cell line = assay: alamarBlue cell viability assay; conditions: 24 h; for viability at 10 µM: read-out: % Viability PGA-1, 10 µM, 24 h
# PGA-1 CLL cells = assay: Annexin V/PI apoptotic assay (FACS); type: cell-based; conditions: PGA-1, 10 μM, 48 h
# Method: (§4) The pro-apoptotic effects of the selected nitrovinylanthracene compounds 19a, 19g, 19i, 19l and 19m after 48 h were next determined using FITC (fluorescein isothiocyanate), Annexin V/PI (propidium iodide) staining and FACS (fluorescence-activated cell sorting) analysis to characterize the mode of cellular death induced. […] The CLL cells PGA1 and HG3 (1 × 10^6 cells/mL) were treated at 37 °C with either vehicle (1% (v/v) DMSO) or the nitrostyrene compounds 19a (10 μM, 5 μM and 1 μM) and 19g, 19i, 19l and 19m (10 μM and 1 μM) for 48 h. The cells were then harvested by centrifugation at 400× g in a temperature-controlled Sorvall centrifuge and rinsed with 0.5 mL of Ca^2+ Annexin-V-binding buffer (0.1 M HEPES, pH 7.4; 0.14 M NaCl; 25 mM CaCl2). The samples were resuspended in 50 µL FITC Annexin V (diluted 1:33 in Ca^2+ Annexin V-binding buffer), incubated on ice for 10 min (protected from light), washed with Annexin-V-binding buffer and re-suspended in 500 µL of propidium iodide (PI) solution (0.5 µg/mL). The samples were analysed within 1 h using a BD Accuri C6 flow cytometer counting 10,000 cells and analysed using the FlowJo software (FlowJo LLC, Ashland, OR, USA) package.
# HG-3 CLL cells = assay: Annexin V/PI apoptotic assay (FACS); type: cell-based; conditions: 48 h
# Method: as §4
# HG-3 CLL cell line = assay: alamarBlue cell viability assay; conditions: for viability at 1 µM / viability at 10 µM / IC50: CLL cell, 24 h; for viability at 1 µM: read-out: % Viability HG-3, 1 µM, 24 h; for viability at 10 µM: read-out: % Viability HG-3, 10 µM, 24 h; for IC50: read-out: HG-3 IC50, 24 h; for fold greater response (IC50) in HG-3 compared to PGA-1 cells: ratio of IC50 values
# [9] = test system: MDA-MB-231 human breast cancer cells; assay: alamarBlue cell viability assay; type: cell-based; conditions: eight concentrations 0.001–50 μM
# physchem = type: physicochemical; conditions: buffer
# Method: A preliminary HPLC stability study was performed on a representative nitrovinylanthracene compound 19m (isopropyl) in various biologically relevant pH systems (acidic pH 4 found in the stomach, basic pH 9 found in the intestine and pH 7.4 in the plasma). […] Based on the results of this stability study, the compound 19m was determined to be suitable for further preclinical investigation.
# [10] = 10 µM, total (early + late) apoptosis
# [11] = CLL cell, read-out: PGA-1 IC50, 24 h
smiles,measurement,setting,value
"CC(=O)O[C@H]1C(=O)[C@@]2(C)[C@H]([C@H](OC(=O)c3ccccc3)[C@]3(O)C[C@H](OC(=O)[C@H](O)[C@@H](NC(=O)c4ccccc4)c4ccccc4)C(C)=C1C3(C)C)[C@]1(OC(C)=O)CO[C@@H]1C[C@@H]2O [Taxol, taxol, reference compound]",viability at 1 µM,[1],32%
same,viability at 10 µM,[1],7%
same,viability at 1 µM,[2]; read-out: % Viable Cells Remaining HeLa 24 h 1 µM,86.9%
same,viability at 10 µM,[2]; read-out: % Viable Cells Remaining HeLa 24 h 10 µM,48.4%
same,IC50,MUTU-1 cells,0.3 µM
same,viability at 1 µM,"[3]; MCF7, 72 h, read-out: % Viable Cells Remaining MCF-7 72 h 1 µM",101%
same,viability at 10 µM,"[3]; MCF7, 72 h, read-out: % Viable Cells Remaining MCF-7 72 h 10 µM",75%
same,viability at 1 µM,[4],> 90%
same,viability at 10 µM,[4],40%
same,viability at 1 µM,Ramos BL cell line; read-out: % Viable Cells Remaining Ramos 24 h 1 µM,69.3%
same,viability at 10 µM,Ramos BL cell line; read-out: % Viable Cells Remaining Ramos 24 h 10 µM,24.9%
same,viability at 1 µM,Bjab BL cell line; read-out: % Viable Cells Remaining Bjab 24 h 1 µM,97.6%
same,viability at 10 µM,Bjab BL cell line; read-out: % Viable Cells Remaining Bjab 24 h 10 µM,80.2%
same,% Viable Cells Remaining DG-75 48 h 1 µM,[5],>90%
same,IC50,"[5]; read-out: IC50 DG-75, previous work",1.32 µM
same,viability at 1 µM,[6]; read-out: % Viable Cells Remaining HL60 24 h 1 µM,97.6%
same,viability at 10 µM,[6]; read-out: % Viable Cells Remaining HL60 24 h 10 µM,69.7%
same,IC50,DG-75 cells,1.32 µM
same,% Viable Cells Remaining DG-75,[7],90.0%
same,IC50,[8],0.32 µM
same,MUTU-I Apoptosis (%),MUTU-I BL cells; 1 µM,62.8%
same,MUTU-I Apoptosis (%),MUTU-I BL cells; [10],87.3%
same,MUTU-I Apoptosis (%),"MUTU-I BL cells; 10 µM, total (early + late) apoptosis, listed as taxol",87%
same,DG-75 Apoptosis (%),DG-75 BL cells; 1 µM,20.7%
same,DG-75 Apoptosis (%),DG-75 BL cells; [10],72.8%
"CCc1c2ccccc2c(/C=C/[N+](=O)[O-])c2ccccc12 [Compound 19l, (E)-9-Ethyl-10-(2-Nitrovinyl)Anthracene]",viability at 1 µM,[1],72.7%
same,viability at 10 µM,[1],0.5%
same,viability at 10 µM,PGA-1 CLL cell line; CLL cell,2.7%
same,IC50,PGA-1 CLL cell line; [11],1.3 µM
same,viability at 1 µM,[4],104%
same,viability at 10 µM,[4],4.04%
same,total apoptosis,PGA-1 CLL cells,82%
same,total apoptosis,"HG-3 CLL cells; HG-3, 10 μM",74%
same,viability at 1 µM,HG-3 CLL cell line,78%
same,viability at 10 µM,HG-3 CLL cell line,0.5%
same,IC50,HG-3 CLL cell line,5.4 µM
COc1c2ccccc2c(/C=C/[N+](=O)[O-])c2ccccc12 [Compound 19g],viability at 1 µM,[1],90.1%
same,viability at 10 µM,[1],1.85%
same,IC50,[9],3.78 µM
same,viability at 1 µM,"PGA-1 CLL cell line; CLL cell, read-out: % Viability PGA-1, 1 µM, 24 h",43%
same,viability at 10 µM,PGA-1 CLL cell line; CLL cell,1.21%
same,IC50,PGA-1 CLL cell line; [11],1.3 µM
same,IC50,PGA-1 CLL cell line; read-out: PGA-1 IC50,1.29 µM
same,IC50,[3],5.31 µM
same,viability at 1 µM,[4],89.2%
same,viability at 10 µM,[4],13.8%
same,total apoptosis,PGA-1 CLL cells,52%
same,total apoptosis,"HG-3 CLL cells; HG-3, 1 μM",11%
same,total apoptosis,"HG-3 CLL cells; HG-3, 10 μM",54%
same,viability at 10 µM,HG-3 CLL cell line,0.5 to 8.3%
same,IC50,HG-3 CLL cell line,0.17 µM
same,fold greater response (IC50) in HG-3 compared to PGA-1 cells,HG-3 CLL cell line,7.8 fold
"CC(C)c1c2ccccc2c(/C=C/[N+](=O)[O-])c2ccccc12 [Compound 19m, (E)-9-Isopropyl-10-(2-Nitrovinyl)Anthracene]",viability at 1 µM,[1],78.4%
same,viability at 10 µM,[1],0.21%
same,viability at 10 µM,PGA-1 CLL cell line; CLL cell,2.9%
same,IC50,PGA-1 CLL cell line; [11],9.1 µM
same,half-life,physchem; pH 4,> 24 h
same,remaining at 24 h,physchem; pH 4,55%
same,half-life,physchem; pH 7.4,> 24 h
same,remaining at 24 h,physchem; pH 7.4,56%
same,half-life,physchem; pH 9,19 h
same,remaining at 24 h,physchem; pH 9,42%
same,viability at 1 µM,[4],85.2%
same,viability at 10 µM,[4],28.1%
same,total apoptosis,PGA-1 CLL cells,74%
same,total apoptosis,"HG-3 CLL cells; HG-3, 1 μM",25%
same,total apoptosis,"HG-3 CLL cells; HG-3, 10 μM",69%
same,viability at 1 µM,HG-3 CLL cell line,82%
same,viability at 10 µM,HG-3 CLL cell line,0.9%
same,IC50,HG-3 CLL cell line,0.7 µM
same,fold greater response (IC50) in HG-3 compared to PGA-1 cells,HG-3 CLL cell line,13 fold
"Cc1c2ccccc2c(/C=C/[N+](=O)[O-])c2ccccc12 [Compound 19i, (E)-9-Methyl-10-(2-Nitrovinyl)Anthracene]",viability at 1 µM,[1],94.5%
same,viability at 10 µM,[1],1.95%
same,IC50,[9],3.26 µM
same,viability at 10 µM,PGA-1 CLL cell line; CLL cell,2.9%
same,IC50,PGA-1 CLL cell line; [11],4.4 µM
same,IC50,[3],2.11 µM
same,viability at 1 µM,[4],96.7%
same,viability at 10 µM,[4],19.5%
same,total apoptosis,PGA-1 CLL cells,80%
same,total apoptosis,"HG-3 CLL cells; HG-3, 10 μM",70%
same,viability at 10 µM,HG-3 CLL cell line,0.5 to 8.3%
same,IC50,HG-3 CLL cell line,3.85 µM
